{"source": "patent US20190054103A1", "about": "“METHOD OF TREATMENT OF TP53 WILD-TYPE TUMORS WITH 2',2'-DIFLUORO-5-AZA-2'-DEOXYCYTIDINE OR PRODRUGS THEREOF” (priority 2016, published 2019)", "key": {"[1]": {"tested_on": "TP53 WT colon cancer cell line LoVo", "assay": "CellTiter-Glo growth inhibition, LoVo", "assay_type": "cell-based", "conditions": "Homo sapiens, 72-hour exposure, FIG. 2", "procedure": "Two examples of additional comparisons are provided below for colon cancer cell lines (TP53 WT colon cancer cell line Ls174T and TP53 WT colon cancer cell line LoVo).\nIn these assays, two 96 well plates of each cell line were seeded with 5,000 cells per well in a total volume of […] per well and left incubating overnight. The following day, the cells were exposed to different concentrations of NUC013. At the end of a 72-hour exposure period, the plates were removed for CellTiter-Glo® assay. Luminescence was recorded on a Synergy 4.0."}, "HeLa cells": {"tested_on": "HeLa cells", "assay": "Nucleotide concentrations in HeLa cell extracts by HPLC (RNR inhibition)", "assay_type": "cell-based", "conditions": "50 μM, 16 h incubation", "text": "The more common approach is to synthesize a nucleoside diphosphate and then determine whether it inhibits RNR or p53R2. […] Nucleic Acids Research. […] The other approach is to expose cells in tissue culture to the drug and then attempt to determine whether deoxynucleotide synthesis is inhibited when compared to control cells. Measurement of deoxynucleotides may be done by radioimmunoassay or by HPLC. The disadvantage of a radioimmunoassay is that it can only measure a single deoxynucleotide triphosphate (dNTP) at a time and typically requires a tritiated nucleotide, but it is the preferred method for measuring dCTP [Piall E M, Aherne G W, Marks V. The quantitative determination of 2′-deoxycytidine-5′ triphosphate in cell extracts by radioimmunoassay. Anal Biochem. 1986; 154(1):276-281 incorporated herein by reference in its entirety]. On the other hand, HPLC can measure multiple nucleotides without requiring radiolabeling, but has been noted to quantitate poorly dC nucleotides, possibly as an artifact of an influx of dCTP from the medium [Bianchi V, Pontis E, Reichard P. Changes of deoxyribonucleoside triphosphate pools induced by hydroxyurea and their relation to DNA synthesis. J Biol Chem. 1986; 261(34): 16037-16042 incorporated herein by reference in its entirety]. This approach was used to determine RNR inhibition by NUC013.\nBriefly, HeLa cells ([…]) were grown in the presence or absence of drug, in this case gemcitabine or NUC013. At the end of a 16 h incubation, the medium was aspirated, cells monolayers washed twice with PBS, and used for nucleotide extraction. The nucleotides were extracted from cell monolayers by the addition of ice-cold 80% acetonitrile (ACN) for 1 h. The extracts were centrifuged to remove cellular debris and loaded on a SAX column (100 mg, Supelco) pre-conditioned with methanol, water and ACN. Once the sample was completely effused, the cartridge was washed with 3 ml 80% ACN and 3 ml water and eluted with 1M KCl. The eluent was filtered through a 0.45 μm filter membrane (Roth) and analyzed by HPLC. Peak identification of the different nucleoside mono-, di-, and triphosphates, was made from their characteristic UV absorption spectra and retention times compared with those of a mixture of standards run immediately before cell extracts. The area of individual peaks was measured using ChemStation software (Agilent)."}}, "data": [{"smiles": "Nc1ncn([C@@H]2O[C@H](CO)[C@@H](O)C2(F)F)c(=O)n1", "note": "[NUC013, 4-amino-1-((2R,4R,5R)-3,3-difluoro-4-hydroxy-5-(hydroxymethyl)tetrahydrofuran-2-yl)-1,3,5-triazin-2(1H)-one]", "values": [{"measurement": "GI50", "setting": "[1]", "result": 3000, "unit": "nM"}, {"measurement": "ADP", "setting": "HeLa cells", "result": "13,845"}, {"measurement": "ATP", "setting": "HeLa cells", "result": "21,335"}, {"measurement": "CTP", "setting": "HeLa cells", "result": "1,279"}, {"measurement": "GTP", "setting": "HeLa cells", "result": "2,006"}, {"measurement": "UTP", "setting": "HeLa cells", "result": "4,070"}, {"measurement": "dATP, peak area, AU", "setting": "HeLa cells", "result": 10.2, "unit": "AU"}, {"measurement": "dGDP, peak area, AU", "setting": "HeLa cells", "result": 5.6, "unit": "AU"}, {"measurement": "dTDP, peak area, AU", "setting": "HeLa cells", "result": 18.65, "unit": "AU"}, {"measurement": "dUTP, peak area, AU", "setting": "HeLa cells", "result": 8.8, "unit": "AU"}]}]}
